Results reported in publication PMC9977398, “Next-generation membrane-active glycopeptide antibiotics that also inhibit bacterial cell division” (Chemical Science, 2023).
Like-named read-outs stand apart in the source and are kept apart here.

Columns and labels:
B. subtilis = experiment: Membrane permeabilization assay, propidium iodide uptake; assay type: cell-based; conditions: exponentially growing B. subtilis, 10 μM, PI uptake
Experimental: The kinetics of permeabilization of membranes of MRSA and B. subtilis by the compounds was measured by the uptake of propidium iodide (PI). […] When the membrane integrity is compromised, it enters the cell and fluoresces upon binding to the DNA. Both VanQbiph (4) and VanQAmC10 (8) permeabilized the membrane in a concentration-dependent manner (Fig. S2 ^†). […] They caused gradual permeabilization against the stationary phase cells of MRSA as well (Fig. 2F). The extent of permeabilization was higher for VanQAmC10 (8) than VanQbiph (4) against both the log-phase and stationary-phase bacteria similar to that observed during depolarisation.
50 μL of serially diluted compound was added into 96 well microtiter plates. Freshly drawn, heparanized human blood was centrifuged down to obtain the erythrocytes and re-suspended to 5 vol % in PBS (pH 7.4). […] 100 μL of the supernatant from each well were transferred into fresh microtiter plates, and A540 was measured.
(§1) % haemolysis = (A - A0)/(Atotal -A0) × 100, where A is the absorbance of the test well, A 0 the absorbance of the negative controls (without compound), and A total the absorbance of 100 % hemolysis wells (with Triton X -100), all at 540 nm. […]
2 h post incubation with dye, the absorbance was measured at 570 nm using 600 nm as […]
The bactericidal activity of the compounds was evaluated with the time kill kinetics assay. […]

[1] = tested on: VRSA 4 (vancomycin-resistant S. aureus); design: method as in PMID 32195571; conditions: previously reported; cited from earlier work
[2] = tested on: VRSA 12 (vancomycin-resistant S. aureus); design: method as in PMID 32195571; conditions: previously reported; cited from earlier work
[3] = tested on: VRE 51559 (vancomycin-resistant E. faecium, VanA phenotype, ATCC 51559); design: method as in PMID 32195571; conditions: previously reported; cited from earlier work
human erythrocytes [4] = tested on: human erythrocytes; design: method as in PMID 32195571; conditions: previously reported; cited from earlier work
VRSA = tested on: VRSA; design: method as in PMID 32195571; conditions: strain not specified, Fig. 1 legend; MIC against VRSA previously reported; cited from earlier work
[5] = mice, intravenous injection; cited from earlier work
human erythrocytes [6] = experiment: Haemolysis assay; assay type: cell-based; conditions: human, 1 h, pH 7.4
Experimental: To select the lead compounds, the toxicity of 1–10 was tested against human erythrocytes as their hemolytic activity (HC50). The HC50 is determined as the concentration at which 50% of the compound treated cells are lysed. […] The HC50 for compounds 6–8 was also greater than 500 μM. […] Based on the in vitro activity and hemolysis studies, VanQbiph (4) from the aryl-substituted compounds and VanQAmC10 (8) from the alkyl-chain substituted compounds were selected for further investigations. […] VanQAmC10 (8) was additionally non-toxic to RAW 264.7 cells up to 40 μM and was therefore taken forward in vivo investigation.[18]
50 μL of serially diluted compound was added into 96 well microtiter plates. Freshly drawn, heparanized human blood was centrifuged down to obtain the erythrocytes and re-suspended to 5 vol % in PBS (pH 7.4). 150 μL of the erythrocyte suspension was added to the serially diluted compounds (from 500 µM to 2 µM). One set without compound and other with 50 μL of 1 vol % solution of Triton X-100 were kept as controls. The plates were incubated at 37 °C for 1 h followed by centrifugation at 3,500 rpm for 5 min. 100 μL of the supernatant from each well were transferred into fresh microtiter plates, and A540 was measured.
as §1

SMILES	time to membrane permeabilization (B. subtilis)	Minimum inhibitory concentration, VRSA 4 [1]	Minimum inhibitory concentration, VRSA 12 [2]	Minimum inhibitory concentration, VRE 51559 [3]	HC50 (human erythrocytes [4])	MIC against VRSA (VRSA)	LD50 [5]	HC50 (human erythrocytes [6])
CCCCCCCCCCNC(=O)C[N+](C)(C)CCCNC(=O)C1NC(=O)C2NC(=O)C(NC(=O)C3NC(=O)C(CC(N)=O)NC(=O)C(NC(=O)C(CC(C)C)NC)C(O)c4ccc(c(Cl)c4)Oc4cc3cc(c4OC3OC(CO)C(O)C(O)C3OC3CC(C)(N)C(O)C(C)O3)Oc3ccc(cc3Cl)C2O)c2ccc(O)c(c2)-c2c(O)cc(O)cc21 (centres unmarked) [VanQAmC10 (8)]	≤ 4 min	1.6 to 3.1 µM	1.6 µM	4 µM	>500 µM	1.6 µM	70 mg/kg	
CNC(CC(C)C)C(=O)NC1C(=O)NC(CC(N)=O)C(=O)NC2C(=O)NC3C(=O)NC(C(=O)NC(C(=O)NCCC[N+](C)(C)Cc4ccc(-c5ccccc5)cc4)c4cc(O)cc(O)c4-c4cc3ccc4O)C(O)c3ccc(c(Cl)c3)Oc3cc2cc(c3OC2OC(CO)C(O)C(O)C2OC2CC(C)(N)C(O)C(C)O2)Oc2ccc(cc2Cl)C1O (centres unmarked) [VanQbiph (4)]								>500 µM
